Several values for one entry are separate records, joined by “and”; a condition that tells them apart may be missing. Equal entries are not always repeated. Where two headings read alike, the source gives them in different places.
Experiments:
[1] = biological target: T1, PPM1DΔflap (Homo sapiens, UniProt O15297, DEL219-231/DEL235-284/E287S/S285N); experiment: Isothermal titration calorimetry (ITC); assay type: binding; details: Sup Fig 5A
T1 construct: PPM1D1–218-GGSNGS-288–420 (PPM1D∆flap); His(6)-SUMO (N, cleaved yes); made in house; host or cells: E. coli BL21 (DE3)
T1 sequence (O15297 with tags, fused parts or gaps DEL219-231/DEL235-284/S285N/E287S): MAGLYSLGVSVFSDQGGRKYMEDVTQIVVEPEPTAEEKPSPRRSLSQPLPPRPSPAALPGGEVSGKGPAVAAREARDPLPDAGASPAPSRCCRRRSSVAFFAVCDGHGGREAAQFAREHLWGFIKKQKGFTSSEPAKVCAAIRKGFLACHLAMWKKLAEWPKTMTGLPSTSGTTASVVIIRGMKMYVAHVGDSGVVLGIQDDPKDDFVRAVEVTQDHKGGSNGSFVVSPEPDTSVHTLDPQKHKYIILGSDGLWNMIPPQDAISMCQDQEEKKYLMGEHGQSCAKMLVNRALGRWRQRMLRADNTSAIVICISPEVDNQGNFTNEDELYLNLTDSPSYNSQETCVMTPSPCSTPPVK
Procedure: (§1) Assessments of the analog of GSK2830371 (analog 1d) binding to wild-type and mutant proteins were conducted using an Auto-iTC200 microcalorimeter (Malvern) (see section on synthesis of analog 1d below). The protein was dialyzed extensively into 25 mM HEPES (pH 7.4), 150 mM NaCl, 10 mM MgCl2 and 1 mM TCEP. The dialyzed protein was used to prepare fresh working solutions of protein (20 µM) and analog 1d (200 µM) in 2% DMSO (v/v) in the same buffer. Titrations were performed at 25 °C and consisted of a single initial injection of 0.4 µL, followed by 19 injections of 2 µL of compound into a sample cell containing wild-type or mutant PPM1D, with an interval of 150 s between successive injections. The reference power and stirring speed were set at […] and 1000 RPM, respectively. Heat of dilution and mixing were obtained from injections of analog 1d into ITC buffer lacking protein and subtracted from the integrated data before curve fitting. Thermodynamic data were analyzed using Origin 7.0 software and fitted by non-linear regression to the model for a single binding site.

[2] = biological target: T2, PPM1DΔhinge (Homo sapiens, UniProt O15297, DEL155-163/G166S/M164G/T165G); experiment: Isothermal titration calorimetry (ITC); assay type: binding; details: Sup Fig 5C
T2 construct: PPM1D1–154-GGS-167–420 (PPM1D∆hinge); His(6)-SUMO (N, cleaved yes); made in house; host or cells: E. coli BL21 (DE3)
T2 sequence (O15297 with tags, fused parts or gaps DEL155-163/M164G/T165G/G166S): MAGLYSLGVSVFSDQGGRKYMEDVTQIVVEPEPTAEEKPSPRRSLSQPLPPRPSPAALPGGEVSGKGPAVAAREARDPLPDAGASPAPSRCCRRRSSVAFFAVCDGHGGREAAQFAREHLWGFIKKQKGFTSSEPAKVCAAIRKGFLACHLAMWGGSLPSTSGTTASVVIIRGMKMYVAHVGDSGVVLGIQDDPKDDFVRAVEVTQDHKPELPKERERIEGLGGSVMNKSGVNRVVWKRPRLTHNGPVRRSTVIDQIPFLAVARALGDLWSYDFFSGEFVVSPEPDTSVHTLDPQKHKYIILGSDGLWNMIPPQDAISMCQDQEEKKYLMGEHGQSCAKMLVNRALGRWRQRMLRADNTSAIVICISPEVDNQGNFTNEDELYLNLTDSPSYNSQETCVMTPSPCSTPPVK
Procedure: as §1

[3] = ITC stoichiometry, average of 2 trials

Cc1ncc(Cl)cc1NCc1ccc(C(=O)N[C@@H](CC2CCCC2)C(=O)NC2CC2)s1 [GSK2830371]
N Average [1, 3]: 1.11
DH Average ([1]; ITC, average of 2 trials): -14.43 kcal/mol
DS Average ([1]; ITC, average of 2 trials): -12.15 cal/mol/deg
Kd ([1]; ITC, average of 2 trials, read-out: Kd Average): 11.9 nM
DH ([1]; ITC, individual trials): -14.15 kcal/mol and -14.71 kcal/mol
DS ([1]; ITC, individual trials): -11.3 cal/mol/deg and -13 cal/mol/deg
Kd ([1]; ITC, individual trials, read-out: Kd): 12.2 nM and 11.5 nM
N Average [2, 3]: 0.8785
DH Average ([2]; ITC, average of 2 trials): -3.817 kcal/mol
DS Average ([2]; ITC, average of 2 trials): 13.65 cal/mol/deg
DH ([2]; ITC, individual trials): -3.047 kcal/mol and -4.587 kcal/mol
DS ([2]; ITC, individual trials): 16.6 cal/mol/deg and 10.7 cal/mol/deg
